Assay results: US10710987B2, “Hydrochloride salt form for EZH2 inhibition” (Epizyme, Inc., priority 2013, dated 2020)

Test: Dynamic vapor sorption (DVS), hygroscopicity
Type: physicochemical
Settings: for hygroscopicity (DVS, in words): FIGS. 5 and 6
Procedure: Dynamic Vapor Sorption DVS was measured on a VTI Model SGA-100 system. Measurement method: The relative humidity (RH) was changed in a controlled fashion, in 5% steps from 5.0% to 95.0% then back to 5.0% using the gravimetric vapor sorption system, and the weight percentage change (wt %) of the sample at each stage was measured.

| Compound | hygroscopicity (DVS, in words) | weight gain (DVS) (at 75% relative humidity (RH) at 25° C., FIG. 6) | weight increase (DVS) (upon increasing relative humidity from 5.0% to 95.0%, FIG. 5) |
| --- | --- | --- | --- |
| CCN(c1cc(-c2ccc(CN3CCOCC3)cc2)cc(C(=O)NCc2c(C)cc(C)[nH]c2=O)c1C)C1CCOCC1 [Polymorph A, 4-((3′-(((4,6-Dimethyl-2-oxo-1,2-dihydropyridin-3-yl)methyl)carbamoyl)-5′-(ethyl(tetrahydro-2H-pyran-4-yl)amino)-4′-methyl-[1,1′-biphenyl]-4-yl)methyl)morpholin-4-ium chloride] | some hygroscopicity | 4-6% | – |
| CCN(c1cc(-c2ccc(CN3CCOCC3)cc2)cc(C(=O)NCc2c(C)cc(C)[nH]c2=O)c1C)C1CCOCC1.Cl [Polymorph C, 4-((3′-(((4,6-Dimethyl-2-oxo-1,2-dihydropyridin-3-yl)methyl)carbamoyl)-5′-(ethyl(tetrahydro-2H-pyran-4-yl)amino)-4′-methyl-[1,1-biphenyl]-4-yl)methyl)morpholin-4-ium chloride] | non-hygroscopic | – | less than 1.5% |
